Assays:
Assay type in all cases: in vivo
canola [1] = test: Experiment 11 canola yield, field test conditions, second site; conditions: 20 ppm and 40 ppm seed treatment, crop maturation (approximately 90 days)
Protocol: (§1) For the Experiments described below, application of 1,2-dimethyl-4-dimethylaminomethyl-5-hydroxy benzimidazole (referred to herein as INTRINSIC™) was by way of seed treatment. Treated seeds were prepared by mixing 1.0 kg of seed and 2.0 mL of an aqueous solution of INTRINSIC™ comprising 0.1% potassium hydroxide in a ZIPLOC™ bag. Control seeds were prepared by mixing 1.0 kg of seed and 2.0 mL of aqueous 0.1% potassium hydroxide solution in a ZIPLOC™ bag. The seeds and solutions were sufficiently mixed to wet the seeds. The seeds were dried after being wetted. […] Experiments 10 and 11 tested the effects of 20 ppm and 40 ppm INTRINSIC™ on canola yield under field test conditions. FIGS. 10(a) and 10(b) display yield results at crop maturation (approximately 90 days) at a first site, showing greater yield crops from treated seeds compared to crops from control seeds. FIGS. 11(a) and 11(b) display yield results at crop maturation (approximately 90 days) at a second site, again showing greater yield crops from treated seeds compared to crops from control seeds.

soy bean [2] = test: Experiment 4 soy bean root growth, greenhouse conditions; conditions: 40 ppm seed treatment; 10 days
Protocol: (§2) For the Experiments described below, application of 1,2-dimethyl-4-dimethylaminomethyl-5-hydroxy benzimidazole (referred to herein as INTRINSIC™) was by way of seed treatment. Treated seeds were prepared by mixing 1.0 kg of seed and 2.0 mL of an aqueous solution of INTRINSIC™ comprising 0.1% potassium hydroxide in a ZIPLOC™ bag. Control seeds were prepared by mixing 1.0 kg of seed and 2.0 mL of aqueous 0.1% potassium hydroxide solution in a ZIPLOC™ bag. The seeds and solutions were sufficiently mixed to wet the seeds. The seeds were dried after being wetted. […] Experiment 4 tested the effects of 40 ppm INTRINSIC™ on soy bean root growth under greenhouse conditions.

wheat [3] = test: Experiment 2(a) wheat root growth, laboratory conditions, seedling trays; conditions: 20 ppm and 40 ppm seed treatment; 72 hours; FIG. 2(a)
Protocol: as §2, with “Experiment 2(a) tested the effects of 20 ppm and 40 ppm INTRINSIC™ on wheat root growth under laboratory conditions. Treated and control seeds were grown in seedling trays lined with moistened tissue. Experiment 2(b)” for “Experiment 4”, “on wheat” for “on soy bean”, “conditions. Experiment 2(c) tested the effects of 40 ppm INTRINSIC™ on wheat root growth under laboratory conditions. Treated and control seeds were grown in agar culture medium. Results at 8 days are shown Figure in FIG. 2(c).” for “conditions.”

canola [4] = test: Experiment 8 canola growth, field test conditions, second site; conditions: 10 days
Protocol: (§3) For the Experiments described below, application of 1,2-dimethyl-4-dimethylaminomethyl-5-hydroxy benzimidazole (referred to herein as INTRINSIC™) was by way of seed treatment. Treated seeds were prepared by mixing 1.0 kg of seed and 2.0 mL of an aqueous solution of INTRINSIC™ comprising 0.1% potassium hydroxide in a ZIPLOC™ bag. Control seeds were prepared by mixing 1.0 kg of seed and 2.0 mL of aqueous 0.1% potassium hydroxide solution in a ZIPLOC™ bag. The seeds and solutions were sufficiently mixed to wet the seeds. The seeds were dried after being wetted. […] Experiments 7 and 8 tested the effects of 20 ppm and 40 ppm INTRINSIC™, on canola growth under field test conditions.

wheat [5] = test: Experiment 6 wheat growth, field test conditions; conditions: 20 ppm and 40 ppm, alone and combined with CRUISER MAXX™ and DIVIDEND™, 10 days
Protocol: as §3, with “INTRINSICTM)” for “INTRINSIC™)”, “INTRINSICTM” for “INTRINSIC™”, “ZIPLOCTM” for “ZIPLOC™”, “Experiment 6” for “Experiments 7 and 8”, “INTRINSICTM, alone and combined with known seed treatments (CRUISER […] and […], from SyngentaTM Canada Inc., applied per manufacturer's recommendations),” for “INTRINSIC™,”, “wheat” for “canola”

canola [6] = test: Experiment 7 canola growth, field test conditions, first site; conditions: 20 ppm and 40 ppm seed treatment, 10 days
Protocol: as §3

wheat [7] = test: Experiment 9 wheat yield, field test conditions; conditions: crop maturation (approximately 90 days)
Protocol: For the Experiments described below, application of 1,2-dimethyl-4-dimethylaminomethyl-5-hydroxy benzimidazole (referred to herein as INTRINSICTM) was by way of seed treatment. Treated seeds were prepared by mixing 1.0 kg of seed and 2.0 mL of an aqueous solution of INTRINSICTM comprising 0.1% potassium hydroxide in a ZIPLOCTM bag. Control seeds were prepared by mixing 1.0 kg of seed and 2.0 mL of aqueous 0.1% potassium hydroxide solution in a ZIPLOCTM bag. The seeds and solutions were sufficiently mixed to wet the seeds. The seeds were dried after being wetted. […] Experiment 9 tested the effects of 40 ppm INTRINSICTM, CRUISER […], and the combination of the two, on wheat yield under field test conditions. CRUISER […] was applied per the manufacturer's recommendations. FIGS. 9(a) and 9(b) display yield results at crop maturation (approximately 90 days), showing greater yield crops from INTRINSICTM-treated seeds (whether alone or in combination with CRUISER […]) compared to crops from control seeds.

wheat [8] = test: Experiment 2(c) wheat root growth, laboratory conditions, agar culture medium; conditions: 40 ppm seed treatment, 8 days, FIG. 2(c)
Protocol: as §2, with “Experiment 2(a) tested the effects of 20 ppm and 40 ppm INTRINSIC™ on wheat root growth under laboratory conditions. […] Experiment 2(b)” for “Experiment 4”, “on wheat” for “on soy bean”, “conditions. Experiment 2(c) tested the effects of 40 ppm INTRINSIC™ on wheat root growth under laboratory conditions. Treated and control seeds were grown in agar culture medium. Results at 8 days are shown Figure in FIG. 2(c).” for “conditions.”

canola [9] = test: Experiment 10 canola yield, field test conditions, first site; conditions: 20 ppm and 40 ppm seed treatment, crop maturation (approximately 90 days)
Protocol: as §1

canola [10] = test: Experiment 3 canola root growth, greenhouse conditions; conditions: 40 ppm seed treatment; 10 days
Protocol: as §2, with “Experiment 3” for “Experiment 4”, “on canola” for “on soy bean”

wheat [11] = test: Experiment 2(b) wheat root growth, greenhouse conditions; conditions: 40 ppm seed treatment, 10 days, FIG. 2(b)
Protocol: as §2, with “Experiment 2(a) tested the effects of 20 ppm and 40 ppm INTRINSIC™ on wheat root growth under laboratory conditions. Treated and control seeds were grown in seedling trays lined with moistened tissue. Experiment 2(b)” for “Experiment 4”, “on wheat” for “on soy bean”, “conditions. Experiment 2(c) tested the effects of 40 ppm INTRINSIC™ on wheat root growth under laboratory conditions. Treated and control seeds were grown in agar culture medium. Results at 8 days are shown Figure in FIG. 2(c).” for “conditions.”

wheat [12] = test: Experiment 1 wheat seed germination, laboratory conditions, seedling trays; conditions: 20 ppm and 40 ppm seed treatment
Protocol: For the Experiments described below, application of 1,2-dimethyl-4-dimethylaminomethyl-5-hydroxy benzimidazole (referred to herein as INTRINSIC™) was by way of seed treatment. Treated seeds were prepared by mixing 1.0 kg of seed and 2.0 mL of an aqueous solution of INTRINSIC™ comprising 0.1% potassium hydroxide in a ZIPLOC™ bag. Control seeds were prepared by mixing 1.0 kg of seed and 2.0 mL of aqueous 0.1% potassium hydroxide solution in a ZIPLOC™ bag. The seeds and solutions were sufficiently mixed to wet the seeds. The seeds were dried after being wetted. […] Experiment 1 tested the effects of 20 ppm and 40 ppm INTRINSIC™ on wheat seed germination under laboratory conditions. Treated and control seeds were grown in seedling trays lined with moistened tissue.

soy bean [13] = test: Experiment 12 soy bean yield, field test conditions; conditions: 20 ppm and 40 ppm seed treatment; crop maturation (approximately 90 days)
Protocol: as §1, with “Experiment 12” for “Experiments 10 and 11”, “soy bean” for “canola”, “12(a)” for “10(a)”, “12(b)” for “10(b)”, “days),” for “days) at a first site,”, “seeds.” for “seeds. FIGS. 11(a) and 11(b) display yield results at crop maturation (approximately 90 days) at a second site, again showing greater yield crops from treated seeds compared to crops from control seeds.”

corn = test: Experiment 5 corn root growth, greenhouse conditions; conditions: 40 ppm seed treatment; 10 days
Protocol: as §2, with “Experiment 5” for “Experiment 4”, “on corn” for “on soy bean”

[14] = 20 ppm and 40 ppm seed treatment
[15] = 40 ppm seed treatment, another set of tests

## Cc1nc2c(CN(C)C)c(O)ccc2n1C [INTRINSIC™, 1,2-dimethyl-4-dimethylaminomethyl-5-hydroxy benzimidazole]
Canola [1]
  canola yield compared to crops from control seeds: greater yield
Soy bean [2]
  foliage size compared to control seedlings: larger foliage
  number of roots compared to control seedlings: greater number of roots
Wheat [3]
  number of roots compared to control seedlings: greater number of roots
  root length compared to control seedlings: longer roots
  shoot length compared to control seedlings: longer shoots
Canola [4]; [14]
  root length compared to control seedlings: significant increases
  root surface area compared to control seedlings: significant increases
Canola [4]; [15]
  root weight compared to control seedlings: significant increases
  shoot weight compared to control seedlings: significant increases
Wheat [5]
  root length compared to control seedlings: significant increases
  root surface area compared to control seedlings: significant increases
Wheat [5]; another set of tests
  root weight compared to control seedlings: significant increases
  shoot weight compared to control seedlings: significant increases
Canola [6]
  root length compared to control seedlings: significant increases
  root surface area compared to control seedlings: significant increases
Canola [6]; another set of tests
  root weight compared to control seedlings: significant increases
  shoot weight compared to control seedlings: significant increases
Wheat [7]; 40 ppm seed treatment alone
  wheat yield compared to crops from control seeds: greater yield
Wheat [7]; 40 ppm seed treatment in combination with CRUISER MAXX™
  wheat yield compared to crops from control seeds: greater yield
Wheat [8]
  number of roots compared to control seedlings: greater number of roots
  root length compared to control seedlings: longer roots
  shoot length compared to control seedlings: longer shoots
Canola [9]
  canola yield compared to crops from control seeds: greater yield
Canola [10]
  foliage size compared to control seedlings: larger foliage
  number of roots compared to control seedlings: greater number of roots
  root length compared to control seedlings: longer roots
Wheat [11]
  number of roots compared to control seedlings: greater number of roots
  root length compared to control seedlings: longer roots
  shoot length compared to control seedlings: longer shoots
Wheat [12]; 24 hours
  number of wheat seeds broken open compared to control: greater number
Wheat [12]; 48 h, 72 h and 96 h
  number of roots compared to control seedlings: greater number of roots
  root length compared to control seedlings: longer roots
  shoot length compared to control seedlings: longer shoots
Soy bean [13]
  soy bean yield compared to crops from control seeds: greater yield
corn
  foliage size compared to control seedlings: larger foliage
  number of roots compared to control seedlings: greater number of roots

Source: patent publication US9018392B1, “Compounds, compositions and methods for crop enhancement” (Active AgriProducts Inc., priority 2014, dated 2015)
